Measured values taken from patent US20210318306A1, “Compositions for and Methods of Neutralizing Lipopolysaccharide Toxicity and Methods of Identifying the Same” (priority 2020, published 2021).
Values joined by “and” are separate entries in the source; they are usually repeats but may differ in a detail not shown here. Identical values can stand only once.

Test system: HEK-Blue hTLR4 cells
Experiment: IL-8 dose response in HEK-Blue hTLR4 cells with P.g. LPS 1 μg/ml and 3X-24X dilutions of simple solutions (Example 4)
Format: cell-based, human
Protocol: HEK-Blue hTLR4 cells (Invivogen, cat #hkb-htlr4) were cultured in a DMEM culture medium supplemented with 10% FBS and 1% penstrep at 37° C. with 5% CO2. LPS from Porphyromonas gingivalis (P.g. LPS; Invivogen, cat #tlrl-pglps and cat #tlrl-ppglps) activates TLR4 receptor and downstream inflammation in HEK-Blue hTLR4 cells. P.g. LPS is co-incubated with HEK-Blue hTLR4 cells in the absence or presence of the simple solutions. Standard and ultrapure P.g. LPS were both used due to ultrapure being a specific ligand for the TLR4 receptor while standard LPS is a ligand for both TLR2 and TLR4.
The simple solutions a) Zinc Oxide (ZnO), b) Zinc Citrate (ZnCitrate), c) Zinc Oxide+Zinc Citrate (Dual Zinc; DZ), d) Dual Zinc+Arginine (DZA, zinc oxide, zinc citrate and arginine), and e) L-Arginine (Arg) were diluted at different concentrations with culture medium.
2) experiments using 3×, 6×, 12×, and 24× dilution fold of the simple solutions (see Table 6 below).
HEK-Blue hTLR4 cells were plated in 96-well plates and grown until confluent at 37° C. and 5% CO2 in HEK-blue selection media (DMEM with 10% FBS, 1% penicillin-streptomycin, and antibiotics for HEK-blue selection (Invivogen, cat #hb-sel)). Cells were co-incubated overnight with varying concentrations of different zinc actives as well as arginine and stimulated with either 0.1 μg/mL standard P. gingivalis LPS or 1 μg/mL ultrapure P. gingivalis LPS. Cell supernatants were collected for human inflammation cytokine panels using Multiplex and ELISA analysis.
Multiplex analysis was performed using the MILLIPLEX MAP Human Cytokine/Chemokine Magnetic Bead Panel—Immunology Multiplex Assay for IL-1, IL-6, IL-8, TNFα, and GM-CSF (Millipore Sigma, cat #HCYTOMAG-60K).
In order to understand the role of Arginine in the inhibition of LPS induced inflammation, a dose response experiment was performed using ultrapure P.g. LPS, which only specifically targets TLR4 receptor, in order to maximize the activation of NF-kB and expression of IL-8.
The testing samples were prepared as the stock simple solutions. […] The first serial dilution was made 3 times with water, a dilution factor simulating dilution of toothpastes while brushing. Additional serial dilutions were made by 2-fold of the first dilution to study dose response effect.

[1] = 3X dilution of stock simple solution (Table 6) with P.g. LPS (1 μg/ml)
[2] = 6X dilution of stock simple solution (Table 6) with P.g. LPS (1 μg/ml)
[3] = 12X dilution of stock simple solution (Table 6) with P.g. LPS (1 μg/ml)
[4] = 24X dilution of stock simple solution (Table 6) with P.g. LPS (1 μg/ml)

For `N=C(N)NCCC[C@H](N)C(=O)O` [Arg, L-Arginine], which “IL-8 Concentration, Average” value [1] is on record?
The value was 236.6 pg/mL.

What about the “IL-8 Concentration, replicate” value [1] of the same compound?
Its value is 248.5 pg/mL and 224.7 pg/mL.

And the “IL-8 Concentration, Average” value [2]?
Its value is 1480.7 pg/mL.

What about the “IL-8 Concentration, replicate” value [2] of the same compound?
Its value is 1649.9 pg/mL and 1311.5 pg/mL.

What about the “IL-8 Concentration, Average” value [3] of the same compound?
The value was 2903.3 pg/mL.

What about the “IL-8 Concentration, replicate” value [3] of the same compound?
The value was 2891.2 pg/mL and 2915.5 pg/mL.

What about the “IL-8 Concentration, Average” value [4] of the same compound?
Its value is 3020.6 pg/mL.

And the “IL-8 Concentration, replicate” value [4]?
The value was 3003.8 pg/mL and 3037.4 pg/mL.

What about the “inhibition of IL-8 (in words)” value (at 3 times dilution of the stock simple solution) of the same compound?
Its value is “strong inhibition”.

And the “inhibition of IL-8 (in words)” value (when dilution folds increase)?
The value was “lose the inhibition of IL-8 gradually”.
